Measurements: ChEMBL document CHEMBL3045542, “A quantitative structure-activity relationship study of herbicidal analogues of alpha-hydroxy-substituted 3-benzylidenepyrrolidene-2,4-diones” (2006)

What was measured:
Assay type in all cases: functional
Echinochloa crus-galli [1] = experiment: Herbicidal activity against Echinochloa crus-galli (barnyard grass) assessed as inhibition of plant growth at 750 g/ha applied as pre-emergence treatment; conditions: Echinochloa crus-galli, pre-emergence
Digitaria sanguinalis [2] = experiment: Herbicidal activity against Digitaria sanguinalis (hairy crabgrass) assessed as inhibition of plant growth at 93.75 g/ha applied as pre-emergence treatment; conditions: Digitaria sanguinalis, pre-emergence
Digitaria sanguinalis [3] = experiment: Herbicidal activity against Digitaria sanguinalis (hairy crabgrass) assessed as inhibition of plant growth at 375 g/ha applied as pre-emergence treatment; conditions: Digitaria sanguinalis, pre-emergence
Echinochloa crus-galli [4] = experiment: Herbicidal activity against Echinochloa crus-galli (barnyard grass) assessed as inhibition of plant growth at 375 g/ha applied as pre-emergence treatment; conditions: Echinochloa crus-galli, pre-emergence
Digitaria sanguinalis [5] = experiment: Herbicidal activity against Digitaria sanguinalis (hairy crabgrass) assessed as inhibition of plant growth at 187.5 g/ha applied as pre-emergence treatment; conditions: Digitaria sanguinalis, pre-emergence
Echinochloa crus-galli [6] = experiment: Herbicidal activity against Echinochloa crus-galli (barnyard grass) assessed as inhibition of plant growth at 10 ug/mL by cup test
Echinochloa crus-galli [7] = experiment: Herbicidal activity against Echinochloa crus-galli (barnyard grass) assessed as inhibition of plant growth at 187.5 g/ha applied as pre-emergence treatment; conditions: Echinochloa crus-galli, pre-emergence
Digitaria sanguinalis [8] = experiment: Herbicidal activity against Digitaria sanguinalis (hairy crabgrass) assessed as inhibition of plant growth at 750 g/ha applied as pre-emergence treatment; conditions: Digitaria sanguinalis, pre-emergence
Echinochloa crus-galli [9] = experiment: Herbicidal activity against Echinochloa crus-galli (barnyard grass) assessed as inhibition of plant growth at 93.75 g/ha applied as pre-emergence treatment; conditions: Echinochloa crus-galli, pre-emergence

**Q.** Which inhibition at 750 g/ha (Echinochloa crus-galli [1]) does the source give for `CCC(C)N1CC(=O)/C(=C(/O)c2ccc(OC)cc2OC)C1=O` (centres undefined) here?
**A.** 100%

**Q.** And the inhibition at 93.75 g/ha (Digitaria sanguinalis [2])?
**A.** 0%

**Q.** And the inhibition at 375 g/ha (Digitaria sanguinalis [3])?
**A.** 63%

**Q.** And the inhibition at 375 g/ha (Echinochloa crus-galli [4])?
**A.** 76%

**Q.** And the inhibition at 187.5 g/ha (Digitaria sanguinalis [5])?
**A.** 4%

**Q.** And the inhibition at 10 µg/mL (Echinochloa crus-galli [6])?
**A.** 79%

**Q.** What about the inhibition at 187.5 g/ha (Echinochloa crus-galli [7]) of the same molecule?
**A.** 14%

**Q.** And the inhibition at 750 g/ha (Digitaria sanguinalis [8])?
**A.** 80%

**Q.** And the inhibition at 93.75 g/ha (Echinochloa crus-galli [9])?
**A.** 13%
